Consider three compounds from US9771563B2, “Chemical approaches for generation of induced pluripotent stem cells” (The Scripps Research Institute, priority 2008, dated 2017).

Test [1] relates to mouse embryonic fibroblasts (129 or OG2 MEFs). In words: Screen for iPSC generation from MEFs transduced with Oct4/Klf4 (OK). In kind it is cell-based. Here is the method: Unmodified MEFs derived from E13-14 embryos of the 129 mice were used for the initial screen. MEFs were plated on Matrigel at 3.5×10^4 cells/well of a 6-well plate and transduced with OK (retroviral vectors expressing Oct4 and Klf4) alone. Within 14-21 days, treated cells were assessed for the appearance of colonies that had the characteristic embryonic stem cell (ESC) colony morphology and were positive for the pluripotency marker alkaline phosphatase (ALP). Such OK-transduced cells generated only a few small non-compact colonies, which were weakly positive for ALP expression. These colonies initially appeared within 21 days after viral transduction and were difficult to expand. Therefore, such assay system offered a clean background for the identification of small molecules having desirable reprogramming inducing activity. Using this system, compounds from a library of around 2000 known small molecules (see Experimental Procedures below) were screened and were identified as hits when they induced the appearance of ESC colonies that were strongly positive for ALP within 14-21 days after treatment. This image-based method provided a more accurate assessment of reprogramming as compared to homogenous reporter-based assay. BIX appeared to have the strongest effect with reproducible induction of more than 1-2 compact ESC-like colonies with high ALP expression. We observed that when MEFs were treated with BIX after OK viral transduction, compact colonies with strong ALP expression could be readily detected within approximately 14-21 days. These cells were also positive for Nanog, Oct4 and SSEA-1 expression. […] However, the reprogramming efficiency in MEFs transduced with OK and treated with BIX was still low, about 2 colonies/3.5×10^4 cells, in comparison to the four factor-induced reprogramming of MEFs or the OK/BIX NPC reprogramming (Shi, Y. et al., Cell Stem Cell, 2:525-528 (2008)). Therefore, we conducted a second screen using a similar protocol, but where BIX was added to the basal media after OK viral transduction. This provided a more permissive platform to identify new small molecules that could further improve reprogramming efficiency. More importantly, this second screen could facilitate discovery of small molecules that impact reprogramming in a more specific manner, for example by acting on signal transduction pathways rather than on histone or DNA modifying enzymes. In this second screen, we again assayed the library of around 2000 known small molecules (see Experimental Procedures), and confirmed two compounds that were able to act in a synergistic manner with BIX to improve reprogramming based on the criteria of the screen. […] Therefore, RG108 was not pursued further for this study. Instead, we focused our phenotypic and functional characterization on another small molecule that was identified in the second screen, BayK, an L-calcium channel agonist. […] Therefore, BayK might play a more specific role in the reprogramming process. When 129 MEFs were transduced with empty retrovirus (negative control); no colonies observed. When 129 MEFs were transduced with OK without small molecules; few small flattened colonies with weak ALP expression present. […] When OK-transduced MEFs were treated with BIX in combination with BayK, a significant increase in the number of ALP^+ colonies that closely resemble the mESC morphology could be observed (˜7 colonies) as compared to OK-transduced MEFs treated with BIX alone (˜2 colonies).
Primary 12952/SvPasCrlf (primary screen) or ROSA26^+/−/OG2^+/− (secondary screen) MEFs were plated onto Matrigel (1:50; BD Biosciences, Bedford, Mass.) coated dishes at a density of 3.5×10^4 cells per well of a 6-well plate. Twenty-four hours later, these cells were transduced overnight with defined retroviruses at 37° C., 5% CO2. […] (all products were from Invitrogen, Carlsbad, Calif., except where mentioned). […]

The test system of test [2] is OG2+/-/ROSA26+/- MEFs. In words: Assessment of SOX2 expression after compound treatment (RT-PCR). The settings on record: 2 μM BayK, 1 μM BIX, 6 days. The format is cell-based, mouse. On the procedure:
OG2^+/−/ROSA26^+/− MEFs were plated onto 6-well plate at a density of 3.4×10^4 cells per well. On the following day, the cells were treated with DMSO, 1 μM BIX, 2 μM BayK, and a combination of both, in triplicate, for 6 days. The media was refreshed at day 3. RNA from each well was then isolated using the RNAeasy Mini Kit (Quiagen). Reverse transcription of the RNA was performed using the iScript™ cDNA Synthesis Kit (BioRad, Hercules, Calif.). Amplification of endogenous Sox2 was done using primers previously published (Takahashi, K., Okita, K., Nakagawa, M., and Yamanaka, S. (2007). Induction of pluripotent stem cells from fibroblast cultures. Nat Protoc 2, 3081-3089; Takahashi, K., and Yamanaka, S. (2006). Induction of pluripotent stem cells from mouse embryonic and adult fibroblast cultures by defined factors. Cell 126, 663-676) with Platinum PCR SuperMix (Invitrogen) on a Mastercycler® ep gradient PCR machine (Eppendorf).

The test system of test [3] is mES R1 cells. In words: Proliferation assay. The settings on record: 2 μM BayK, 1 μM BIX; 15, 24, 48 hours; vs DMSO. The format is cell-based, mouse. On the procedure: mES R1 cells were plated onto gelatin-coated 6-well plates at a density of 2×10^5 cells/well in complete mES cell media. Upon cell attachment, app. 12 hours, the cells were treated either with DMSO, 1 μM BIX, 2 μM BayK, and a combination of both, in triplicate. At 15, 24 and 48 hours, the cells were detached using trypsin, and counted using a hemocytometer. Trypan blue (Sigma-Aldrich, St. Louis, Mo.) was used for dead cell exclusion.

Test [4] concerns mouse fibroblasts. In words: Reprogramming of mouse fibroblasts with exogenous poly-Arg transcription factor proteins. The format is cell-based. The settings on record: cells incubated with transcription factor proteins plus agent. Here is the method: Mouse fibroblasts were grown in mESC medium supplemented with 8 μg/ml of either Oct4/Sox2/Klf4 or Oct4/Sox2/Klf4/Myc (all proteins comprising poly-Arg as described above) for 6-8 hours, washed, and incubated for 2-3 days in mESC media without the above-listed transcription factors. This (4-12 hours with, 1-3 days without) was repeated a number (1, 2, 3, 4, or more) of times and then the cells were cultured in mESC for two weeks.
Mouse fibroblasts were grown in mESC growth medium [Knockout DMEM (Invitrogen) supplemented with 10% ES-FBS+10% KSR, 0.1 mM 2-ME, 1% Glutamax, 1% Non-essential amino acids, 1% EmbryoMax ESC Qualified Nucleosides (Millipore), and 10^3 units/ml LIF (ESGRO, Chemicon International)] supplemented with 8 μg/ml of Oct4/Sox2/Klf4/Myc (all four transcription factors are tagged with poly-Arg […]; SEQ ID NO:2) for 4-12 hours, followed by culturing the cells in the absence of the Oct4/Sox2/Klf4/Myc polypeptides for one day. This procedure was repeated 4 times. The cells were then cultured in mESC medium for another two weeks. iPSC clones were detected by colony morphology and expression of pluripotency markers. An intermediate iPSC clone, which expresses ALP but not Oct4 (Oct4), was dissociated with Trypsin-EDTA. The clone was then expanded by continuous culturing with regular mESC medium or medium supplemented with 0.5 μM PD0325901, 3 μM CHIR99021, 0.5 μM A-83-01. The number of Oct4-positive colonies were counted 2 weeks after small molecule treatment (FIG. 14).

Test [5] deals with MEFs. In words: Real-time PCR of pluripotency genes in untransduced MEFs after small molecule treatment. The format is cell-based, mouse. The settings on record: 10 μM CHIR99021, three days. A general note: Quantitative PCR measures a nucleic acid by following its amplification.
Procedure: To detect the expression of pluripotency genes by MEFs and NHEKs that were treated with small molecules, untransduced MEFs and NHEKs were treated for three days in mESC growth medium with 10 μM CHIR99021 or in hES cell medium with either combination of 10 μM CHIR99021 and 2 μM Parnate or combination of 10 μM CHIR99021, 2 μM Parnate, 0.5 μM PD0325901 and 2 μM SB431542. For the semi-quantitative and quantitative RT-PCR analyses, RNA was extracted from miPSCs-OK, hiPSCs-OK, MEFs, treated MEFs and treated NHEKs using the RNeasy Plus Mini Kit in combination with QIAshredder (Qiagene). Reverse transcription was performed with 1 μg RNA using iScript™ cDNA Synthesis Kit (BioRad). […] Real-time PCR was carried out using iQ SYBR Green Supermix (BioRad). […] The expression of genes of interest was normalized to that of GAPDH in all samples.
Test [6] deals with MEFs (129, ROSA26+/-/OG2+/-). In words: Reprogramming of MEFs transduced with Oct4/Sox2/Klf4 or Oct4/Klf4 with CHIR99021. The format is cell-based, mouse. Here is the method: Cell Culture and Viral Transduction: MEFs were derived from 129S2/SvPasCrlf and ROSA26^+/−/OG2^+/− mice according to the protocol reported on WiCell Research Institute website: “Introduction to human embryonic stem cell culture methods”. ROSA26^+/−/OG2^+/− heterozygous transgenic mice carry GFP reporter gene under the control of the Oct4 promoter (Oct4-GFP) and the ubiquitously expressed neo/lacZ transgene [Do J T, Scholer H R, Stem Cells, 22:941-949 (2004)]. Animal experiments were performed according to the Animal Protection Guidelines of the Max Planck Institute for Biomolecular Research, Germany. MEFs were transduced by Oct4, Klf4 and Sox2 three factors, or two-factor combinations of the pMXs-based retroviruses encoding mouse Oct4, Klf4 and Sox2 (Addgene) as previously described [Takahashi K, Yamanaka S, Cell, 126:663-676 (2006)]. […] MEFs transduced with Oct4/Klf4/Sox2 (lx 10^4 cells/well together with 10^5 cells/well CF1 feeders in 6-well plates) were then treated with GSK-3 inhibitor CHIR99021 (Stemgent) for two weeks, and EGFP positive colonies were picked up at the third week after treatment. MEFs transduced with Oct4/Klf4 (lx 10^5 cells/well in 6-well plates) were treated with 10 μM CHIR99021 for four weeks, GFP positive colonies were picked up and expanded at the fourth to fifth week after treatment.

Test [7] relates to Normal Human Epidermal Keratinocytes (NHEKs). In words: Reprogramming of lentivirally transduced NHEKs (TRA-1-81 colonies). In kind it is cell-based. The settings on record: 0.25 mM NaB vs 0.5 mM VPA. From the text: Among several readily available primary human somatic cell types, keratinocytes that can be easily isolated from human skin or hair follicle represent an attractive cell source for reprogramming, because they endogenously express Klf4 and cMyc, and were reported to be reprogrammed more efficiently using the conventional four TFs or three TFs (without Myc) (Aasen et al., Nat Biotechnol 26, 1276-1284 (2008); Maherali et al., Cell Stem Cell 3, 340-345 (2008)). […] Furthermore, we have shown that such dual pathway inhibition could also enhance reprogramming of human keratinocytes by two exogenous TFs (i.e. OK) with two small molecules, Parnate (an inhibitor of lysine-specific demethylase 1) and CHIR99021 (a GSK3 inhibitor) (Li et al., Stem Cells 27, 2992-3000 (2009)). However, such 2-TFs reprogramming process was very inefficient and complex (e.g. involving two exogenous TFs and four chemicals), and reprogramming with even one less TF appeared daunting. Toward this end, we developed a step-wise strategy in refining reprogramming condition and identifying new reprogramming chemical entities. […]

For the compound `COC(=O)C1=C(C)NC(C)=C([N+](=O)[O-])C1c1ccccc1C(F)(F)F` (stereo not shown) [BayK8644], the “reprogramming efficiency (GFP+ colonies)” value in test [1] (OG2 MEFs transduced with OK, FIG. 3) was “did not increase reprogramming efficiency above OK-transduced MEF control”. Moreover, the “reprogramming activity on OK-transduced MEFs” value in test [1] (in the absence of BIX) is “no observable reprogramming activity on OK-transduced MEFs in the absence of BIX”. Further, in test [2], the SOX2 expression entry is “does not induce SOX2 expression”. The “proliferation of mES cells (cell number)” value in test [3] was “does not lead to a change in proliferation”.
On to `Cc1c[nH]c(-c2cnc(NCCNc3ccc(C#N)cn3)nc2-c2ccc(Cl)cc2Cl)n1` [CHIR99021], for which the “efficiency and speed of development of pluripotent cells” value in test [4] was “improved efficiency and speed of development of pluripotent cells”. Besides, the “expression of Sox2 and Oct4 (real-time PCR)” value in test [5] was “did not induce the expression of Sox2 and Oct4 in MEFs”. The “GFP positive colonies out of 10^5 OG2 MEFs” value in test [6] (Oct4/Klf4 transduction, 10 μM CHIR99021, 4-5 weeks) is “about six”. For the same compound, the “reprogramming efficiency (GFP-positive colonies)” value in test [6] (Oct4/Sox2/Klf4-transduced MEFs, about 10 μM, from 0.03-0.08% without) is given as 0.2-0.4 % of transduced MEFs. Moreover, in test [6] (Oct4/Sox2/Klf4 transduced MEFs, two weeks treatment, staining at third week), the “number of AP-positive mESC-like colonies” value is reported as “significantly increased the number of alkaline phosphase (AP)-positive mESC-like colonies in a dose-dependent manner”.
Consider `CCCC(=O)[O-].[Na+]` [NaB, sodium butyrate], for which the “generation of iPSCs under OK condition” value in test [7] was “much more reliable and efficient than the previously reported 0.5 mM VPA”.
